# Assay results published in patent publication US10130633B2, “Compounds” (BAYER PHARMA AKTIENGESELLSCHAFT, priority 2013, dated 2018).
# Key:
# [1] = tested on: constitutive active colorectal cancer cell (CRC) Wnt pathway; test: HCT116 TOPFlash cellular reporter assay (Super TopFlash luciferase), constitutive active Wnt pathway; format: cell-based; details: Homo sapiens, HCT-116, 36 h, HCT116 TOP reporter cells, 36 hours incubation, luciferase expression
# Description: In order to discover and characterize small molecules which inhibit the constitutive active colorectal cancer cell (CRC) Wnt pathway, a cellular reporter assay was employed. […] Stable transfectants were generated by cotransfection with pcDNA3 and selection of stable transfected cells with 1 mg/ml G418.
# [2] = tested on: HCT116 FOP control reporter cell line; test: HCT116 FOPFlash control reporter assay (FOP control vector, non-functional TCF elements); format: cell-based; details: Homo sapiens, HCT-116, 36 h, HCT116 FOP control reporter cells, 36 hours incubation, luciferase expression
# Description: In a parallel approach, HCT116 cells were cotransfected with the FOP control vector and pcDNA3. The FOP vector is identical to the TOP construct, but it contains instead of functional TCF elements a randomized, non-functional sequence. For this transfection a stable transfected cell line was generated as well.
SMILES,IC50 [1] [nM],IC50 [2] [nM]
"O=C(CN1CCN(CC(F)F)CC1)Nc1cc(C(=O)Nc2ccc(-c3ccccc3F)nc2)ccc1OC(F)(F)F [Example 100, 3-({[4-(2,2-difluoroethyl)piperazin-1-yl]acetyl}amino)-N-[6-(2-fluorophenyl)pyridin-3-yl]-4-(trifluoromethoxy)benzamide]",858,≥ 50000
"COc1ccccc1-c1nnc(NC(=O)c2ccc(OC(F)(F)F)c(NC(=O)CN3CCN(C)CC3)c2)s1 [Example 101, N-[5-(2-methoxyphenyl)-1,3,4-thiadiazol-2-yl]-3-{[(4-methylpiperazin-1-yl)acetyl]amino}-4-(trifluoromethoxy)benzamide]",3200,≥ 50000
"Cc1ccc(-c2nnc(NC(=O)c3ccc(OC(F)(F)F)c(NC(=O)CN4CCN(C)CC4)c3)s2)cc1 [Example 102, N-[5-(4-methylphenyl)-1,3,4-thiadiazol-2-yl]-3-{[(4-methylpiperazin-1-yl)acetyl]amino}-4-(trifluoromethoxy)benzamide]",458,19500
"Cc1ccc(C(=O)Nc2nnc(-c3ccccc3)s2)cc1NC(=O)C1(N2CCOCC2)CC1 [Example 103, 4-methyl-3-({[1-(morpholin-4-yl)cyclopropyl]carbonyl}amino)-N-(5-phenyl-1,3,4-thiadiazol-2-yl)benzamide]",752,21000
"CN1CCN(CC(=O)Nc2cc(C(=O)Nc3nnc(-c4ccccc4)s3)ccc2CS(C)(=O)=O)CC1 [Example 104, 3-{[(4-methylpiperazin-1-yl)acetyl]amino}-4-[(methylsulfonyl)methyl]-N-(5-phenyl-1,3,4-thiadiazol-2-yl)benzamide]",2030,≥ 50000
"COC(=O)c1ccc(C(=O)Nc2nnc(-c3ccccc3)s2)cc1NC(=O)CN1CCOCC1 [Example 106, methyl 2-[(morpholin-4-ylacetyl)amino]-4-[(5-phenyl-1,3,4-thiadiazol-2-yl)carbamoyl]benzoate]",285,≥ 50000
"COc1ccc(NC(=O)c2cnc(-c3ccccc3)s2)cc1NC(=O)C(C)N1CCOCC1 (stereo not shown) [Example 107, N-(4-methoxy-3-{[2-(morpholin-4-yl)propanoyl]amino}phenyl)-2-phenyl-1,3-thiazole-5-carboxamide]",209,≥ 50000
"O=C(Nc1ccc(OC(F)(F)F)c(NC(=O)C2(N3CCOCC3)CC2)c1)c1cnc(-c2ccccc2)s1 [Example 108, N-[3-({[1-(morpholin-4-yl)cyclopropyl]carbonyl}amino)-4-(trifluoromethoxy)phenyl]-2-phenyl-1,3-thiazole-5-carboxamide]",463,≥ 50000
"CC(C(=O)Nc1cc(C(=O)Nc2ccc(-c3ccc(O)cc3F)nc2)ccc1OC(F)(F)F)N1CCOCC1 (stereo not shown) [Example 109, N-[6-(2-fluoro-4-hydroxyphenyl)pyridin-3-yl]-3-{[2-(morpholin-4-yl)propanoyl]amino}-4-(trifluoromethoxy)benzamide]",208,29900
"CC(C(=O)Nc1cc(C(=O)Nc2ccc(-c3ccc(O)c(F)c3)nc2)ccc1OC(F)(F)F)N1CCOCC1 (stereo not shown) [Example 110, N-[6-(3-fluoro-4-hydroxyphenyl)pyridin-3-yl]-3-{[2-(morpholin-4-yl)propanoyl]amino}-4-(trifluoromethoxy)benzamide]",450,42000
"CC(C(=O)Nc1cc(C(=O)Nc2ccc(-c3ccc(C(F)F)cc3)nc2)ccc1OC(F)(F)F)N1CCOCC1 (stereo not shown) [Example 112, N-{6-[4-(difluoromethyl)phenyl]pyridin-3-yl}-3-{[2-(morpholin-4-yl)propanoyl]amino}-4-(trifluoromethoxy)benzamide]",270,≥ 50000
"CC(C(=O)Nc1cc(C(=O)Nc2ccc(-c3ccc(N(C)C)cc3)nc2)ccc1OC(F)(F)F)N1CCOCC1 (stereo not shown) [Example 114, N-{6-[4-(dimethylamino)phenyl]pyridin-3-yl}-3-{[2-(morpholin-4-yl)propanoyl]amino}-4-(trifluoromethoxy)benzamide]",46,≥ 50000
"O=C(CN1CCOCC1)Nc1cc(NC(=O)c2noc(-c3ccccc3)n2)ccc1OC(F)(F)F [Example 121, N-{3-[(morpholin-4-ylacetyl)amino]-4-(trifluoromethoxy)phenyl}-5-phenyl-1,2,4-oxadiazole-3-carboxamide]",825,≥ 50000
"O=C(CN1CCOCC1)Nc1cc(C(=O)Nc2cnc(-c3ccccc3)s2)ccc1OC(F)(F)F [Example 122, 3-[(morpholin-4-ylacetyl)amino]-N-(2-phenyl-1,3-thiazol-5-yl)-4-(trifluoromethoxy)benzamide]",202,≥ 50000
"Cn1nc(C(=O)Nc2ccc(OC(F)(F)F)c(NC(=O)CN3CCOCC3)c2)cc1-c1ccccc1 [Example 123, 1-methyl-N-{3-[(morpholin-4-ylacetyl)amino]-4-(trifluoromethoxy)phenyl}-5-phenyl-1H-pyrazole-3-carboxamide]",560,≥ 50000
"O=C(CN1CCOCC1)Nc1cc(C(=O)Nc2nc(-c3ccccc3)no2)ccc1OC(F)(F)F [Example 125, 3-[(morpholin-4-ylacetyl)amino]-N-(3-phenyl-1,2,4-oxadiazol-5-yl)-4-(trifluoromethoxy)benzamide]",1700,≥ 50000
"O=C(CN1CCOCC1)Nc1cc(C(=O)Nc2nnc(-c3ccccc3F)s2)ccc1OC(F)(F)F [Example 127, N-[5-(2-fluorophenyl)-1,3,4-thiadiazol-2-yl]-3-[(morpholin-4-ylacetyl)amino]-4-(trifluoromethoxy)benzamide]",885,≥ 50000
"CC(C(=O)Nc1cc(C(=O)Nc2nnc(-c3ccccc3)s2)ccc1C(F)(F)F)N1CCOCC1 (stereo not shown) [Example 128, 3-{[2-(morpholin-4-yl)propanoyl]amino}-N-(5-phenyl-1,3,4-thiadiazol-2-yl)-4-(trifluoromethyl)benzamide]",710,≥ 50000
"CC(C(=O)Nc1cc(C(=O)Nc2nnc(-c3ccccc3)s2)ccc1C(F)(F)F)N1CCN(C)CC1 (stereo not shown) [Example 129, 3-{[2-(4-methylpiperazin-1-yl)propanoyl]amino}-N-(5-phenyl-1,3,4-thiadiazol-2-yl)-4-(trifluoromethyl)benzamide]",900,≥ 50000
"COc1ccc(NC(=O)c2nnc(-c3ccccc3)s2)cc1NC(=O)CN1CCOCC1 [Example 130, N-{4-methoxy-3-[(morpholin-4-ylacetyl)amino]phenyl}-5-phenyl-1,3,4-thiadiazole-2-carboxamide]",318,≥ 50000
"CN1CCN(C2(C(=O)Nc3cc(C(=O)Nc4ccc(-c5ccccc5F)nc4)ccc3OC3CC3)CC2)CC1 [Example 135, 4-(cyclopropyloxy)-N-[6-(2-fluorophenyl)pyridin-3-yl]-3-({[1-(4-methylpiperazin-1-yl)cyclopropyl]carbonyl}amino)benzamide]",84.8,≥ 50000
"CC1CN(CC(=O)Nc2cc(C(=O)Nc3ccc(-c4ccccc4F)nc3)ccc2OC(F)(F)F)CCN1C (stereo not shown) [Example 137, 3-{[(3,4-dimethylpiperazin-1-yl)acetyl]amino}-N-[6-(2-fluorophenyl)pyridin-3-yl]-4-(trifluoromethoxy)benzamide]",272,20000
"CSc1ccc(C(=O)Nc2ccc(-c3ccccc3F)nc2)cc1NC(=O)CN1CCOCC1 [Example 138, N-[6-(2-fluorophenyl)pyridin-3-yl]-4-(methylsulfanyl)-3-[(morpholin-4-ylacetyl)amino]benzamide]",150,≥ 50000
"CS(=O)(=O)c1ccc(C(=O)Nc2ccc(-c3ccccc3F)nc2)cc1NC(=O)CN1CCOCC1 [Example 139, N-[6-(2-fluorophenyl)pyridin-3-yl]-4-(methylsulfonyl)-3-[(morpholin-4-ylacetyl)amino]benzamide]",500,25000
"CN(C)C1(C(=O)Nc2cc(C(=O)Nc3ccc(-c4ccccc4F)nc3)ccc2OC2CC2)CC1 [Example 140, 4-(cyclopropyloxy)-3-({[1-(dimethylamino)cyclopropyl]carbonyl}amino)-N-[6-(2-fluorophenyl)pyridin-3-yl]benzamide]",293,10000
"O=C(Cn1cccn1)Nc1cc(C(=O)Nc2ccc(-c3ccccc3F)nc2)ccc1OC1CC1 [Example 141, 4-(cyclopropyloxy)-N-[6-(2-fluorophenyl)pyridin-3-yl]-3-[(1H-pyrazol-1-ylacetyl)amino]benzamide]",680,≥ 50000
"CC(C(=O)Nc1cc(C(=O)Nc2ccc(-c3ccccc3F)nc2)ccc1C(C)(C)C)N1CCOCC1 (stereo not shown) [Example 142, 4-tert-butyl-N-[6-(2-fluorophenyl)pyridin-3-yl]-3-{[2-(morpholin-4-yl)propanoyl]amino}benzamide]",118,7150
"CC(C(=O)Nc1cc(C(=O)Nc2ncc(-c3ccccc3)s2)ccc1C(C)(C)C)N1CCOCC1 (stereo not shown) [Example 143, 4-tert-butyl-3-{[2-(morpholin-4-yl)propanoyl]amino}-N-(5-phenyl-1,3-thiazol-2-yl)benzamide]",204,≥ 50000
"Cc1ccccc1-c1nnc(NC(=O)c2ccc(OC(F)(F)F)c(NC(=O)CN3CCN(C)CC3)c2)s1 [Example 144, N-[5-(2-methylphenyl)-1,3,4-thiadiazol-2-yl]-3-{[(4-methylpiperazin-1-yl)acetyl]amino}-4-(trifluoromethoxy)benzamide]",195,≥ 50000
